Test results from patent US20030162777A1, “Novel N-acylated heterocycles” (Recordati S.A., priority 2001, published 2003).
Where two headings read alike, the source gives them in different places.

Assays:
[1] = target: T1, human 5HT1A-serotonergic receptor (Homo sapiens, UniProt P08908); test: Radioligand binding to recombinant 5-HT1A receptors; conditions: [3H]8-OH-DPAT 1 nM, membranes of HeLa cells with human 5-HT1A receptor; Ki from IC50 by Cheng & Prusoff; read-out: Binding affinity for 5HT1A receptors, Ki
T1 construct: expressed in transfected cells; host or cells: HeLa (human cell line), stably transfected; cell membranes used
T1 sequence (P08908 1-422): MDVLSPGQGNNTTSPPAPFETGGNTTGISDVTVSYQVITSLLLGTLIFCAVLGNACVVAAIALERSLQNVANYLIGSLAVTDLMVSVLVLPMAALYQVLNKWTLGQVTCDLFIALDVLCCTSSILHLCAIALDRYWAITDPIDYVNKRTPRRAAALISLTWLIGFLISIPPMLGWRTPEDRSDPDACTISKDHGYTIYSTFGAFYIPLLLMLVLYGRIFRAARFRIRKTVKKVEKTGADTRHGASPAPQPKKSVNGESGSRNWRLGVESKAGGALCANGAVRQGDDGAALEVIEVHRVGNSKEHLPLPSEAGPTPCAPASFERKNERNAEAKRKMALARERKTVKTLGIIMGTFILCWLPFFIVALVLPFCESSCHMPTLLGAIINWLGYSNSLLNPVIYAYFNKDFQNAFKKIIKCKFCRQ
In short: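 Displacement of 1 nM [3H]8-OH-DPAT (30 min, 30 °C, Tris-HCl pH 7.4 with MgCl2 and pargyline) from recombinant human 5-HT1A in transfected HeLa membranes, stopped by filtration. Specific binding defined against 10 μM 5-HT; IC50 by nonlinear fitting, then Ki by Cheng–Prusoff.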

anaesthetised rats = test: Effects on rhythmic bladder-voiding contractions induced by bladder filling in anaesthetised rats; assay type: in vivo, rat; conditions: for ED50: Rattus norvegicus; for ED50 / ED10 min (extrapolated dose inducing 10 minutes of disappearance of the contractions): intravenous administration
Procedure: Female Sprague-Dawley rats weighing 225-275 g (Crl: CDo Br, Charles River Italia) were used. The animals were housed with free access to food and water and maintained on a forced 12-hour alternating light-dark cycle at 22-24° C. for at least one week, except during the experiment. The activity on rhythmic bladder voiding contractions was evaluated according to the method of Dray (Dray J., Pharmacol. Methods, 13:157, 1985), with some modifications as in Guarneri (Guarneri, Pharmacol. Res. 27:173, 1993). Briefly, the rats were anaesthetised by subcutaneous injection of 1.25 g/kg (5 ml/kg) urethane, after which the urinary bladder was catheterised via the urethra using PE 50 polyethylene tubing filled with physiological saline. The catheter was tied in place with a ligature around the external urethral orifice and was connected to conventional pressure transducers (Statham P23 ID/P23 XL). […] The bladder was then filled via the recording catheter by incremental volumes of warm (37° C.) saline until reflex bladder-voiding contractions occurred (usually 0.8-1.5 ml). For intravenous injection of bioactive compounds, PE 50 polyethylene tubing filled with physiological saline was inserted into the jugular vein.
From the cystometrogram, the number of contractions recorded 15 minutes before (basal values) and after treatment, as well as the mean amplitude of these contractions (mean height of the peaks in mmHg), was evaluated.
Since most compounds produced an effect that was relatively rapid in onset and led to a complete cessation of bladder contractions, bioactivity was conveniently estimated by measuring the duration of bladder quiescence (i.e. the length of the time during which no contractions occurred). The number of tested animals showing a reduction in the number of contractions higher than 30% of that observed in the basal period was recorded too.
The extrapolated doses which induced a reduction in the number of contractions greater than 30% in 50% of the treated rats (ED50) were evaluated by the method of Bliss (Bliss C. I., Quart J. Pharm. Pharmacol. 11, 192-216, 1938).

5-HT1A receptors = target: T2, 5-HT1A receptors (Rattus norvegicus, UniProt P19327); test: Inhibition of stereotypy (rhythmic forepaw treading) induced by 8-OH-DPAT in rats (post-synaptic antagonism); assay type: in vivo; conditions: 1 mg/kg p.o.; for inhibition at 1 mg/kg: rat
T2 construct: from tissue; host or cells: whole animal: male Sprague-Dawley rats (post-synaptic 5-HT1A receptors)
T2 sequence (P19327 1-422): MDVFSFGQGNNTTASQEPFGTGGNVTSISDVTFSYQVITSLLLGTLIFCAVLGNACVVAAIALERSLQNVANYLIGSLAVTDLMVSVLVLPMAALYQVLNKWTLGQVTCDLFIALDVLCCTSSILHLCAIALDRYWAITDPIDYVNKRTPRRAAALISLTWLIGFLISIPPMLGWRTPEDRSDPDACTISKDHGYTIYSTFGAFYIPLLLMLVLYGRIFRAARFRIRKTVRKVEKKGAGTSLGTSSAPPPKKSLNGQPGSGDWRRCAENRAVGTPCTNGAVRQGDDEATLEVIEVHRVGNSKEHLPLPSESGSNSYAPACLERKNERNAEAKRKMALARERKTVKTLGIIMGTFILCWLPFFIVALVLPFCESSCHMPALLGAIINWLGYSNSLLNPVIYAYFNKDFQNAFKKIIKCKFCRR
Procedure: The inhibitory effect of 5-HT1A-receptor antagonists on stereotyped forepaw treading induced in rats by subcutaneous injection of 8-OH-DPAT was evaluated by the method of Tricklebank (Tricklebanket al., Eur. J. Pharmacol., 117: 15, 1985) with minor modifications as described below.
Male Sprague-Dawley rats [Crl: CD° (SD) BR] weighing 150-175 g from Charles River Italia were used. The animals were housed with free access to food and water and maintained on a forced 12-hour-light/12-hour-dark cycle at 22-24° C. of temperature. On the day of the experiment, the rats were placed singly in clear plastic containers, 10-15 minutes before administration of the vehicle or compounds to be tested. For evaluation of antagonistic activity after oral administration, the compounds were administered 0.5, 1 and 4 hours before induction of stereotypy by 8-OH-DPAT (1 mg/kg subcutaneously). Observation sessions lasted 30 seconds and began 3 minutes after 8-OH-DPAT treatment and were repeated every 3 minutes over a period of 15 minutes.
The appearance of the symptom induced by postsynaptic stimulation of 5-HT1A receptors was noted, and the intensity was scored using an intensity scale in which: 0=absent, 1=equivocal, 2=present and 3=intense. Behavioural scores for treated rats were accumulated throughout the observation time (5 observation periods) and expressed as mean values of 4 rats/dose. Change in mean values of treated animals in comparison with control (vehicle) group, expressed as per-cent inhibition, was used in order to quantify the antagonistic activity.

conscious rats = test: Effect on cystometric parameters in conscious rats after oral administration; assay type: in vivo, rat; conditions: 3 mg/kg p.o., 1-5 h after treatment, versus vehicle
Procedure: Male Sprague-Dawley rats [Crl: CD° (SD) BR] of 300-400 g supplied by Charles River Italia were used. The animals were housed with free access to food and water and maintained on a forced 12-hour-light/12-hour-dark cycle at 22-24° C. of temperature, except during the experiment. To quantify urodynamic parameters in conscious rats, cystometrographic studies were performed according to the procedure previously reported (Guarneri et al., Pharmacol. Res. 24: 175, 1991).
Briefly, the rats were anaesthetised by intraperitoneal administration of 3 ml/kg of Equithensin solution (pentobarbital 30 mg/kg and chloral hydrate 125 mg/kg) and placed in a supine position. An approximately-10-mm-long midline incision was made in the shaved and cleaned abdominal wall. The urinary bladder was gently freed from adhering tissues, emptied and then cannulated via an incision in the bladder body, using a polyethylene cannula (0.58-mm internal diameter, 0.96-mm external diameter) which was permanently sutured with silk thread. The cannula was exteriorised through a subcutaneous tunnel in the retroscapular area, where it was connected to a plastic adapter in order to avoid the risk of removal by the animal. For drug testing, the rats were utilised one day after implantation.
On the day of the experiment, the rats were placed in modified Bollman cages, i.e. restraining cages that were large enough to permit the rats to adopt a normal crouched posture, but narrow enough to prevent turning around. […] The intraluminal-pressure signal during infusion of saline into the bladder was continuously recorded on a polygraph (Rectigraph-8K San-ei with BM614/2 amplifier from Biomedica Mangoni) and, from the cystometrogram, two urodynamic parameters were evaluated: bladder volume capacity (BVC) and micturition pressure (MP). […] Basal BVC and MP values were evaluated as mean of the values observed in the cystometrograms recorded in an initial period of 30-60 minutes. […] The bladder infusion restarted and changes in BVC and MP were evaluated from the mean values obtained in the cystometrograms observed during 1, 2, 3, 4 and 5 hours after treatment. […]
All data were expressed as mean±standard error. Time-course data were analysed by S.A.S./STAT software, version 6.12. The difference between vehicle and active-treatment effect was evaluated by: General Linear Model Procedure—Repeated Measures Analysis of Variance: Univariate test of Hypotheses for within Subject Effects—Analysis of Variance of Contrast Variables. […]

[2] = urethane-anaesthetised rats, read-out: ED50 frequency (extrapolated dose inducing a reduction of the number of contractions >30% in 50% of treated rats)

Row | Ki [1] | inhibition at 1 mg/kg (5-HT1A receptors; 0.5 h before 8-OH-DPAT (1 mg/kg s.c.)) | inhibition at 1 mg/kg (5-HT1A receptors; 1 h before 8-OH-DPAT (1 mg/kg s.c.)) | inhibition at 1 mg/kg (5-HT1A receptors; 4 h before 8-OH-DPAT (1 mg/kg s.c.)) | Structure (SMILES) | ED50 (anaesthetised rats; [2]) | ED10 min (extrapolated dose inducing 10 minutes of disappearance of the contractions) (anaesthetised rats; urethane-anaesthetised rats) | post-synaptic 5-HT1A-receptor antagonist activity (in words) (5-HT1A receptors; rats) | ED50 (anaesthetised rats; n.a. = not active, no significant reduction of the height of the peaks, read-out: ED50 amplitude (extrapolated dose inducing a 30% reduction of amplitude of the contractions in 50% of treated rats)) | cessation of bladder contractions (in words) (anaesthetised rats; intravenous, anaesthetised rats) | effect on bladder volume capacity (BVC) (conscious rats) | effect on micturition pressure (MP) (conscious rats)
1 | 0.2 nM | 100% | 100% | 98% | O=C(C1CCCCC1)N1c2ccccc2CCC1CN1CCN(c2cccc3[nH]ccc23)CC1 (single isomer, unassigned; (+)) [Example (+)-1, (+)-1-(1-Cyclohexanecarbonyl-1,2,3,4-tetrahydroquinoline-2-ylmethyl)-4-(4-indolyl)piperazine] | 0.024 mg/kg | 0.072 mg/kg | significant and complete inhibition of the symptom up to 4 hours after administration | – | – | – | –
2 | 0.3 nM | – | – | – | COc1ccccc1N1CCN(CC2CCc3ccccc3N2C(=O)C2CCCCC2)CC1 (stereo not drawn) [Example 2, 1-(1-Cyclohexanecarbonyl-1,2,3,4-tetrahydroquinoline-2-ylmethyl)-4-(2-methoxyphenyl)piperazine] | 0.172 mg/kg | 0.383 mg/kg | – | – | – | – | –
3 | 8.4 nM | – | – | – | COc1ccccc1N1CCN(CCC2CCc3ccccc3N2C(=O)C2CCCCC2)CC1 (stereo not drawn) [Example 3, 1-[2-(1-Cyclohexanecarbonyl-1,2,3,4-tetrahydroquinoline-2-yl)ethyl]-4-(2-methoxyphenyl)piperazine] | 0.02 mg/kg | 0.08 mg/kg | – | – | – | – | –
4 | – | – | – | – | Cc1c(-c2ccccc2)oc2c(C(=O)OCCN3CCCCC3)cccc2c1=O [Flavoxate, flavoxate, reference compound] | 2.65 mg/kg | >10 mg/kg | – | – | – | – | –
5 | – | – | – | – | CCN(CC)CC#CCOC(=O)C(O)(c1ccccc1)C1CCCCC1 (stereo not drawn) [Oxybutynin, oxybutynin, reference compound] | > 10 mg/kg | 7.77 mg/kg | – | 0.24 mg/kg | does not cause cessation of bladder contractions | slight, not-significant increase | greatly reduced
